Consider four compounds from ChEMBL document CHEMBL5614375, “PepExplainer: An explainable deep learning model for selection-based macrocyclic peptide bioactivity prediction and optimization” (Eur J Med Chem, 2024).

The structures appear in SMILES notation. Bridge positions count the residues as written; N and C are the ends. Peptide text beside a SMILES is read from it. Bounds are passed on as bounds.

The assay addresses T1, IL17-RE-IL-17C (Homo sapiens, UniProt Q8NFR9+Q9P0M4).
T1 sequence (Q9P0M4 whole entry): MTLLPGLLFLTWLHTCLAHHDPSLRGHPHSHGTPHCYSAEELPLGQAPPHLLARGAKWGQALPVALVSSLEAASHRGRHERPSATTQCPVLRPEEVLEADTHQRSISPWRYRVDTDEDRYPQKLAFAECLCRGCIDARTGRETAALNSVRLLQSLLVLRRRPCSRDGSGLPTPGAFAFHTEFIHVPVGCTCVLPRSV
T1 sequence (Q8NFR9 whole entry): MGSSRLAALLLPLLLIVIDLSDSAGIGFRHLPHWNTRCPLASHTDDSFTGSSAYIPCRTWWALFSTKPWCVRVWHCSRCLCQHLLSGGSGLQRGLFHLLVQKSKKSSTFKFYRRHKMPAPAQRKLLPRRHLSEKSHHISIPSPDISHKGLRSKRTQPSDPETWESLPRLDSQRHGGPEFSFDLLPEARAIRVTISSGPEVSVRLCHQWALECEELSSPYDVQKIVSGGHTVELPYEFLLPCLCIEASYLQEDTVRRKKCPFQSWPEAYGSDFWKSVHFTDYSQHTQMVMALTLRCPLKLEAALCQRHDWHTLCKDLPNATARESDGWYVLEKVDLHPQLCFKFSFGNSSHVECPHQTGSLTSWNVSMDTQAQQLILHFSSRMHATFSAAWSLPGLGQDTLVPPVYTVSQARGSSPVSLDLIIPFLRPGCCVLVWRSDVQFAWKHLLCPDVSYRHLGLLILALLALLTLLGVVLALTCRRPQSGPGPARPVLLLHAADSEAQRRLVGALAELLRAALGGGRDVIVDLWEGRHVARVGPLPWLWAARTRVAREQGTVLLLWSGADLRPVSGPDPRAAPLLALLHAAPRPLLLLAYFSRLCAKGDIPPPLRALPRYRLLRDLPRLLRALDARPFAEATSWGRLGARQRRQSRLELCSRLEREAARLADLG
Briefly: Inhibition of interleukin-17RE/biotinylated IL-17C protein-protein interaction (unknown origin) incubated for 1 hrs by competitive ELISA. Type of assay: protein-complex assay. Background: ELISA stands for enzyme-linked immunosorbent assay.
For the compound `CC[C@H](C)[C@@H]1NC(=O)[C@H](CCCNC(=N)N)NC(=O)[C@H](Cc2ccc(O)cc2)NC(=O)[C@H](Cc2ccc(O)cc2)NC(=O)[C@H](Cc2c[nH]cn2)NC(=O)[C@H](Cc2c[nH]cn2)NC(=O)[C@H](Cc2ccc(O)cc2)NC(=O)CSC[C@@H](C(=O)NCC(N)=O)NC(=O)CNC(=O)[C@H](CC(C)C)NC(=O)[C@H](CC(=O)O)NC(=O)CNC(=O)[C@H](Cc2ccc(O)cc2)NC(=O)[C@H](CC(C)C)NC1=O` ({CH2CO}-YHHYYRILYGDLGCG-NH2; thioether N-14), the half-inhibitory concentration (IC50) worked out at 83 nM. This lies in the double-digit nanomolar range.

For the compound `CC[C@H](C)[C@@H]1NC(=O)[C@H](CCCNC(=N)N)NC(=O)[C@H](Cc2ccc(O)cc2)NC(=O)[C@H](Cc2ccc(O)cc2)NC(=O)[C@H](CCC(=O)O)NC(=O)[C@H](Cc2c[nH]cn2)NC(=O)[C@H](Cc2ccc(O)cc2)NC(=O)CSC[C@@H](C(=O)NCC(N)=O)NC(=O)CNC(=O)[C@H](CC(C)C)NC(=O)[C@H](CCC(=O)O)NC(=O)CNC(=O)[C@H](Cc2ccc(O)cc2)NC(=O)[C@H](CC(C)C)NC1=O` ({CH2CO}-YHEYYRILYGELGCG-NH2; thioether N-14), the half-maximal inhibitory concentration (IC50) turned out to be 86 nM. The compound `CC(C)C[C@@H]1NC(=O)[C@H](C)NC(=O)[C@H](CCCNC(=N)N)NC(=O)[C@H](Cc2ccc(O)cc2)NC(=O)[C@H](Cc2ccc(O)cc2)NC(=O)[C@H](Cc2c[nH]cn2)NC(=O)[C@H](Cc2c[nH]cn2)NC(=O)[C@H](Cc2ccc(O)cc2)NC(=O)CSC[C@@H](C(=O)NCC(N)=O)NC(=O)CNC(=O)[C@H](CC(C)C)NC(=O)[C@H](CCC(=O)O)NC(=O)CNC(=O)[C@H](Cc2ccc(O)cc2)NC1=O` ({CH2CO}-YHHYYRALYGELGCG-NH2; thioether N-14) had a half-inhibitory concentration (IC50) of 254 nM. On to `CC(C)C[C@@H]1NC(=O)[C@H](CC(=O)O)NC(=O)CNC(=O)[C@H](Cc2ccc(O)cc2)NC(=O)[C@H](CC(C)C)NC(=O)[C@H](CO)NC(=O)[C@H](CCCNC(=N)N)NC(=O)[C@H](Cc2ccc(O)cc2)NC(=O)[C@H](Cc2ccc(O)cc2)NC(=O)[C@H](Cc2c[nH]cn2)NC(=O)[C@H](CCC(N)=O)NC(=O)[C@H](Cc2ccc(O)cc2)NC(=O)CSC[C@@H](C(=O)NCC(N)=O)NC(=O)CNC1=O` ({CH2CO}-YQHYYRSLYGDLGCG-NH2; thioether N-14), for which the half-maximal inhibitory concentration (IC50) is greater than 30000 nM.

Broadly, the IC50 is the concentration that gives 50% inhibition.
